Measurements as given in article PMC11413503, “SCR‐7952, a highly selective MAT2A inhibitor, demonstrates synergistic antitumor activities in combination with the S‐adenosylmethionine‐competitive or the methylthioadenosine‐cooperative protein arginine methyltransferase 5 inhibitors in methylthioadenosine phosphorylase‐deleted tumors” (MedComm, 2024).

How the values were obtained:
[1] = biological target: ADRB1 (Homo sapiens, UniProt P08588); experiment: Mini-profiling panel, GPCR; assay type: cell-based; details: GPCR Targets
[2] = biological target: HRH1 (Homo sapiens, UniProt P35367); experiment: Mini-profiling panel, GPCR; assay type: cell-based; details: GPCR Targets
[3] = test system: KP4 (MTAP-deleted pancreatic cancer cell line); experiment: Combination proliferation assay; assay type: cell-based; details: KP4 cells, 8 days
Description: Cells were plated in 96‐well cell culture plates and allowed to attach overnight at 37°C in 5% CO2. […] The final concentration of DMSO was 0.1% in media. Cell proliferation was measured using CellTiter‐Glo Cell Viability Assay (Promega). The IC50 values were calculated using the GraphPad Prism 9. Drug combination effects were analyzed using Combenefit software.[45]

[4] = biological target: ADORA2A (Homo sapiens, UniProt P29274); experiment: Mini-profiling panel, GPCR; assay type: cell-based; details: GPCR Targets
[5] = test system: HCT116 WT cells; experiment: Proliferation assay (CellTiter-Glo); assay type: cell-based; details: Homo sapiens, HCT-116, 144 h; 6-day treatment; read-out: IC50, anti-proliferation HCT116 WT
Description: (§1) HCT116 colon carcinoma parental (WT) cells with MTAP ^−/− isogenic clone were established by KYinno Biotechnology Co., Ltd. (Beijing, China). A549, MIA PaCa‐2, and WI‐38 cell lines were obtained from ATCC. NCI‐H838 was obtained from Cobioer Biosciences. HCT116 WT and KO MTAP cells were cultured in McCoy's 5A media containing 10% FBS. A549 cells were cultured in DMEM media containing 10% FBS. MIA PaCa‐2 cells were cultured in DMEM media containing 10% FBS and 2.5% horse serum. NCI‐H838 cells were cultured in PRMI 1640 media containing 10% FBS. WI‐38 cells were cultured in EMEM media containing 10% FBS.
(§2) Cells were plated in 96‐well cell culture plates and allowed to attach overnight at 37°C in 5% CO2. Compounds diluted in DMSO were added to cells in a dose–response format for 6 days. The final concentration of DMSO was 0.1% in media. Cell proliferation was measured using CellTiter‐Glo Cell Viability Assay (Promega). The IC50 values were calculated using the GraphPad Prism 9. Drug combination effects were analyzed using Combenefit software.[45]

[6] = test system: HCT116 MTAP−/− cells; experiment: Proliferation assay (CellTiter-Glo); assay type: cell-based
Description: as §1, §2

[7] = test system: NCI-H838; experiment: Proliferation assay (CellTiter-Glo); assay type: cell-based; details: Homo sapiens, NCI-H838, 144 h; MTAP-deleted, 6-day; read-out: IC50, anti-proliferation NCI-H838
Description: as §1, §2

[8] = test system: A549; experiment: Proliferation assay (CellTiter-Glo); assay type: cell-based; details: Homo sapiens, A549, 144 h; MTAP-deleted, 6-day; read-out: IC50, anti-proliferation A549
Description: as §1, §2

[9] = biological target: INSR (Homo sapiens, UniProt P06213); experiment: Mini-profiling panel, kinase; assay type: biochemical; details: Kinases; read-out: INSR Inhibitor IC50
[10] = test system: SDMA; experiment: Immunoblot of SDMA (PRMT5-dependent mark); assay type: cell-based; details: 96 h, HCT116 MTAP−/− cells
[11] = biological target: VEGFR2 (Homo sapiens, UniProt P35968); experiment: Mini-profiling panel, kinase; assay type: biochemical; details: Kinases; read-out: VEGFR2 Inhibitor IC50
Chain of VEGFR2 (P35968 20-1356, species assumed): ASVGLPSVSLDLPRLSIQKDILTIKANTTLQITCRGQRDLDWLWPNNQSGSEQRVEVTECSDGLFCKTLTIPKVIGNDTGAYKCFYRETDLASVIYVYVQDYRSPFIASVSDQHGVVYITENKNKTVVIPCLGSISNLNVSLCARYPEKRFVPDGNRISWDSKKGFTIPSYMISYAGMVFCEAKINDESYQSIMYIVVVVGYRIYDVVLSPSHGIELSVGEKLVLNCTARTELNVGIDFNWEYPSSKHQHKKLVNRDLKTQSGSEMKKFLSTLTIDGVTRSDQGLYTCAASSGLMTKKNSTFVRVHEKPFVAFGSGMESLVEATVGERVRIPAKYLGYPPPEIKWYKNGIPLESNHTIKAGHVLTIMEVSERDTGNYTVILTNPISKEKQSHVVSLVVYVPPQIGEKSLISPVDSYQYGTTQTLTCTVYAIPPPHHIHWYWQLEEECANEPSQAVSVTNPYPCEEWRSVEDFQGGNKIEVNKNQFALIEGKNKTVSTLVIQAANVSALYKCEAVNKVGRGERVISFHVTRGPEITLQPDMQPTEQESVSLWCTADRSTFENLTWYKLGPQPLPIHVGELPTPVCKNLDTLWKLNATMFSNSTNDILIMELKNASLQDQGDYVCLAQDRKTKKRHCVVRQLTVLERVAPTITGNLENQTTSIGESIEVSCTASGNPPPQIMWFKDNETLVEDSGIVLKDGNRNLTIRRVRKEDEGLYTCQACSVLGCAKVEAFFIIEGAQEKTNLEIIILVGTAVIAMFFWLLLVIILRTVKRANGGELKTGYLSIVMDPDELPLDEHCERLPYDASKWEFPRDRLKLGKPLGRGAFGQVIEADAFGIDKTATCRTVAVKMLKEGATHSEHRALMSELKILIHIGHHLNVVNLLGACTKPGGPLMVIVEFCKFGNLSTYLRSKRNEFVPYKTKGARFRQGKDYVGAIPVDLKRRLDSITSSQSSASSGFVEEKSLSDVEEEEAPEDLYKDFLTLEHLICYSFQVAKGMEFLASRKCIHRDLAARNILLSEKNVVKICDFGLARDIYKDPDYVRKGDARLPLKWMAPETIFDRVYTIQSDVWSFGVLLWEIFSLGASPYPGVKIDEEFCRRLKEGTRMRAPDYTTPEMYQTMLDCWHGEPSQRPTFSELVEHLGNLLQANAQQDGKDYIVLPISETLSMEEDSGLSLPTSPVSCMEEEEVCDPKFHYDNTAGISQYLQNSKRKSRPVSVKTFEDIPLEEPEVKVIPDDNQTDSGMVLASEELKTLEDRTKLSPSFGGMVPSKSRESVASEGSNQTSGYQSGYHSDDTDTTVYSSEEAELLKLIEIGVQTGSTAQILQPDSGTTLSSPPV

Chain of ADRB1 (P08588 whole entry, species assumed): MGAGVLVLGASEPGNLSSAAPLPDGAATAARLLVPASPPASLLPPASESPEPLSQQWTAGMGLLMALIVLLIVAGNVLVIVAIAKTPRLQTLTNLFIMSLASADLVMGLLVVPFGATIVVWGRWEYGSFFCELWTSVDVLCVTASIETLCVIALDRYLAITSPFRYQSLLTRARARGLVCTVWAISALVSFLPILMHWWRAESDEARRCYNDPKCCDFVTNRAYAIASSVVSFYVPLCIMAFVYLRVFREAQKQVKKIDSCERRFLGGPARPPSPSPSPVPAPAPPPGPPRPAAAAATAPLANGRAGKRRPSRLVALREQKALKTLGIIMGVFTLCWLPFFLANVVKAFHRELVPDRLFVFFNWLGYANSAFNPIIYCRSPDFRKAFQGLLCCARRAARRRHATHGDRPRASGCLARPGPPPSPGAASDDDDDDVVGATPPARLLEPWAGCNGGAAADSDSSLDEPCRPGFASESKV
Chain of HRH1 (P35367 whole entry, species assumed): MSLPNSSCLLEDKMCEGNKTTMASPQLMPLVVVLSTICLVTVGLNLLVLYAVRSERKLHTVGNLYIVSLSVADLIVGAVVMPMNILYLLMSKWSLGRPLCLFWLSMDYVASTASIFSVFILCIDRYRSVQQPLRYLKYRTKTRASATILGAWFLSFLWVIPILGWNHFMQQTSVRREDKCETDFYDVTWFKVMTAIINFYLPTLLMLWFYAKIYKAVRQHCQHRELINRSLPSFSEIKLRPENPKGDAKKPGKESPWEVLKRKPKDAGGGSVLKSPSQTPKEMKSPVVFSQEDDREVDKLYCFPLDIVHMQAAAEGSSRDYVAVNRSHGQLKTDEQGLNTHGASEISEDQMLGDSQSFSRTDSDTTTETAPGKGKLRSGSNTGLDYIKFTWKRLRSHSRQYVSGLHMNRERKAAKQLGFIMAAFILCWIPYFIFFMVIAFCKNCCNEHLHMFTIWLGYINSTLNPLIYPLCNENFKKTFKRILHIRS
Chain of ADORA2A (P29274 whole entry, species assumed): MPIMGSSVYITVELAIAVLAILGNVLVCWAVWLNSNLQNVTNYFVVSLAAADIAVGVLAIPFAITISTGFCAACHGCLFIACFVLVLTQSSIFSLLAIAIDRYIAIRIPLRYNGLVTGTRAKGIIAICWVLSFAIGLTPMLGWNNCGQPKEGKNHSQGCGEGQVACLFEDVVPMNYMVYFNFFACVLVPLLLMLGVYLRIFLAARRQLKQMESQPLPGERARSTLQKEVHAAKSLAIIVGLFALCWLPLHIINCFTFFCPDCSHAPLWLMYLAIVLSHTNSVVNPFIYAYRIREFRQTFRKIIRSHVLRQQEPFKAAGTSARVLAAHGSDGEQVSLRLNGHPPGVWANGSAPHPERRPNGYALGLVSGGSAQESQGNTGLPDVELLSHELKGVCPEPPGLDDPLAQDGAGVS
Chain of INSR (P06213 28-1382, species assumed): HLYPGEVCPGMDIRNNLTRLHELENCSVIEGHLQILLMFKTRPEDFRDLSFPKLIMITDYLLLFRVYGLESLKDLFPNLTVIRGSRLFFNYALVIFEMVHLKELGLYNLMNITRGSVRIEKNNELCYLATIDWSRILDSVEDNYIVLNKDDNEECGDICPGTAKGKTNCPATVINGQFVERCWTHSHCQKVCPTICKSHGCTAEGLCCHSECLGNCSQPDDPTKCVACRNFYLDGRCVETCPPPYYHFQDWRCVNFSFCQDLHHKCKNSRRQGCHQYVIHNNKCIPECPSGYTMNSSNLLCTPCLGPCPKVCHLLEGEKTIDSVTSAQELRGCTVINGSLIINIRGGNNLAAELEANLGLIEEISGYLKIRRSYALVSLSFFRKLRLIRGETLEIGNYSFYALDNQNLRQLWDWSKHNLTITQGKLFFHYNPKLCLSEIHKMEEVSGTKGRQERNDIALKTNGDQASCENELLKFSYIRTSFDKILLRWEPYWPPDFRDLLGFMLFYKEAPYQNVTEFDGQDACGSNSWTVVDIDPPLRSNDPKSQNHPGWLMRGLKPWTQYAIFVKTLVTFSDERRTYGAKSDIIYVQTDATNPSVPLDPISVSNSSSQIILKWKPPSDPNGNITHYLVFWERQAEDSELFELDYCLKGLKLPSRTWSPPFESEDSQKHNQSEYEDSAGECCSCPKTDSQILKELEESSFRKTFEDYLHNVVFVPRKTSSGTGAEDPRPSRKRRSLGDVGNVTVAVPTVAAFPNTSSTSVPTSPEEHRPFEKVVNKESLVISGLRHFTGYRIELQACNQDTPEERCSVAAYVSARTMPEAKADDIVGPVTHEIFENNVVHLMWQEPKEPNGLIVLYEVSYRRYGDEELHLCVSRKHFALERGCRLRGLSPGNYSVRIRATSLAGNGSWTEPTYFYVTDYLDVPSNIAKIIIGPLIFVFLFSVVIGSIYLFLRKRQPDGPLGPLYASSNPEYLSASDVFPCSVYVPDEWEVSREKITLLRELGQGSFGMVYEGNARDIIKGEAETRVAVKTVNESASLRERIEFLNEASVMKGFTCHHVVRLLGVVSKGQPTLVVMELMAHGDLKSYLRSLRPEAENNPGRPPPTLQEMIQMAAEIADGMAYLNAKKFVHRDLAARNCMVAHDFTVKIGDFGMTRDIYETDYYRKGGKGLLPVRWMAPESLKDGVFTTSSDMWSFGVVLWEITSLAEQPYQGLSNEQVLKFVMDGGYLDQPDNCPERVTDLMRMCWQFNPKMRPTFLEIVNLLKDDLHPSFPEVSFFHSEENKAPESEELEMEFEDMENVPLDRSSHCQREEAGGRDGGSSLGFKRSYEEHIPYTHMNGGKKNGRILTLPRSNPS

## Cn1cnc2c(=O)n(-c3cccnc3C3CC3)c3cc(Cl)ccc3c21 [SCR‐7952, 7‐chloro‐5‐(2‐cyclopropylpyridin‐3‐yl)‐1‐methyl‐1,5‐dihydro‐4H‐imidazo[4,5‐c]quinolin‐4‐one]
[1]; read-out: ADRB1 Agonism EC50
  EC50: > 10 µM
[1]; read-out: ADRB1 Antagonism IC50
  IC50: > 10 µM
[2]; read-out: HRH1 Agonism EC50
  EC50: > 10 µM
[2]; read-out: HRH1 Antagonism IC50
  IC50: > 10 µM
[3]
  interaction in combination with JNJ-64619178 on KP4: synergistic effect was also observed
[4]; read-out: ADORA2A Agonism EC50
  EC50: > 10 µM
[4]; read-out: ADORA2A Antagonism IC50
  IC50: > 10 µM
[5]
  IC50: 0.488 µM
[6]; HCT116 MTAP−/− cells, 34.4 vs. 300.4 nM
  fold difference of antiproliferative effect of SCR-7952 and AG-270: 8.7 fold
[6]; Homo sapiens, HCT-116, 144 h, 6-day treatment, read-out: IC50, anti-proliferation HCT116 MTAP−/−
  IC50: 0.0344 µM
[7]
  IC50: 0.0043 µM
[8]
  IC50: 0.123 µM
[9]
  IC50: > 10 µM
[10]
  SDMA level (immunoblot): Significant dose‐dependent reduction
[11]
  IC50: > 10 µM
